Activity data for 4 molecules are collected here from ChEMBL document CHEMBL4699515, “Staprexanthones, Xanthone-Type Stimulators of Pancreatic β-Cell Proliferation from a Mangrove Endophytic Fungus” (J Nat Prod, 2020).

Active and inactive are the calls of the source. No cut-off for these calls is given here.

Data set [1] in a line: Induction of beta cells proliferation in 5 days post fertilize Tg(-1.2ins:H2BmCherry) zebra fish larvae assessed as beta cell number at 10 uM after 24 hrs by confocal microscopic method (reference value: 35 +/- 1). Type of data set: functional, Danio rerio, Pancreatic beta cell.
In data set [2] the test system is INS1(832/13). Briefly: Induction of cell proliferation in rat INS-1 832/13 cells after 24 hrs by CCK8 assay. Format: functional, cell-based. A general note: Formazan colour is commonly taken as a measure of viable cells.
For data set [3], the system named is Pancreatic beta cell. The data set can be described thus: Induction of beta cells proliferation in 6 days post fertilize Tg(-1.2ins:H2BmCherry)/TgBAC(neurod1:eGFP) zebra fish larvae at 10 uM after 24 hrs by confocal microscopic method. Format: functional, tissue-based. Particulars: Danio rerio.
The test system of data set [4] is Pancreatic beta cell. Briefly: Induction of beta cells proliferation in 6 days post fertilize Tg(-1.2ins:H2BmCherry)/Tg(gcga:eGFP) zebra fish larvae at 10 uM after 24 hrs by confocal microscopic method. Type of data set: functional. Particulars: Danio rerio.
Data set [5] can be described thus: Induction of beta cells proliferation in 6 days post fertilize Tg(-1.2ins:H2BmCherry)Tg(ins:mAG-zGeminin(1/100)) zebra fish larvae assessed as number of replicated beta cells at 10 uM after 24 hrs by confocal microscopic method (reference value: 1.7 +/- 0.5). Format: functional, Danio rerio, Pancreatic beta cell.
In data set [6] the test system is Pancreatic beta cell. Briefly: Induction of beta cells proliferation in 6 days post fertilize Tg(-1.2ins:H2BmCherry)Tg(ins:mAG-zGeminin(1/100)) zebra fish larvae assessed as increase in total beta cells after 24 hrs by confocal microscopic method. Type of data set: functional. Particulars: Danio rerio, dose microM 5-25, time 24.0 hrs.
The subject of data set [7] is Pancreatic beta cell. The data set can be described thus: Induction of beta cells proliferation in 6 days post fertilize Tg(-1.2ins:H2BmCherry)Tg(ins:mAG-zGeminin(1/100)) zebra fish larvae assessed as increase in beta cell proliferation after 24 hrs by confocal microscopic method. Type of data set: functional. Particulars: Danio rerio, dose microM 5-25, time 24.0 hrs.

Data set [8] in a line: Induction of beta cells proliferation in 6 days post fertilize Tg(-1.2ins:H2BmCherry)Tg(ins:mAG-zGeminin(1/100)) zebra fish larvae assessed as increase in beta cell proliferation at 25 uM after 24 hrs by confocal microscopic method relative to control. Format: functional, Danio rerio, Pancreatic beta cell.
For data set [9], the system named is Pancreatic beta cell. The data set can be described thus: Induction of beta cells proliferation in 6 days post fertilize Tg(-1.2ins:H2BmCherry)Tg(ins:mAG-zGeminin(1/100)) zebra fish larvae assessed as increase in beta cells at 50 uM after 24 hrs by confocal microscopic method relative to control. Type of data set: functional. Particulars: Danio rerio.
Data set [10] in a line: Toxicity in 6 days post fertilize Tg(-1.2ins:H2BmCherry)Tg(ins:mAG-zGeminin(1/100)) zebra fish beta cells at 50 uM after 24 hrs by confocal microscopic method. Format: tissue-based, Danio rerio. Particulars: zebrafish, pancreatic beta cell.
Data set [11] has as its system INS1(832/13). Briefly: Induction of cell cycle progression at G1/S transition in rat INS-1 832/13 cells assessed as increase in Cyclin E mRNA expression at 10 uM after 24 hs by qRT-PCR analysis. Particulars: time 24.0 hrs. Type of data set: functional, cell-based. On the technique in general: Quantitative PCR measures a nucleic acid by following its amplification.

For data set [12], the system named is INS1(832/13). Briefly: Induction of cell cycle progression at G1/S transition in rat INS-1 832/13 cells assessed as increase in Cdk 2 mRNA expression at 10 uM after 24 hs by qRT-PCR analysis. Format: functional, cell-based. Particulars: time 24.0 hrs.
For data set [13], the system named is INS1(832/13). Briefly: Induction of cell cycle progression at G1/S transition in rat INS-1 832/13 cells assessed as increase in Cdk 4 mRNA expression at 10 uM after 24 hs by qRT-PCR analysis. Particulars: time 24.0 hrs. Format: functional, cell-based.
Data set [14] concerns INS1(832/13). Briefly: Induction of cell cycle progression at G1/S transition in rat INS-1 832/13 cells assessed as decrease in p21 mRNA expression at 10 uM after 24 hs by qRT-PCR analysis. Type of data set: functional, cell-based. Particulars: time 24.0 hrs.
Data set [15] deals with INS1(832/13). Briefly: Induction of cell cycle progression at G1/S transition in rat INS-1 832/13 cells assessed as decrease in p27 mRNA expression at 10 uM after 24 hs by qRT-PCR analysis. Particulars: time 24.0 hrs. Type of data set: functional, cell-based.
Data set [16] deals with Pancreatic beta cell. Briefly: Induction of beta cells proliferation in 6 days post fertilize Tg(-1.2ins:H2BmCherry)Tg(ins:mAG-zGeminin(1/100)) zebra fish larvae assessed as increase in total beta cells at 5 to 10 uM after 24 hrs by confocal microscopic method. Type of data set: functional. Particulars: Danio rerio, dose microM 5-10, time 24.0 hrs.
The subject of data set [17] is Pancreatic beta cell. The data set can be described thus: Induction of beta cells proliferation in 6 days post fertilize Tg(-1.2ins:H2BmCherry)Tg(ins:mAG-zGeminin(1/100)) zebra fish larvae assessed as increase in beta cell proliferation at 5 to 10 uM after 24 hrs by confocal microscopic method. Format: functional. Particulars: Danio rerio, dose microM 5-10, time 24.0 hrs.

Data set [18] concerns Pancreatic beta cell. The data set can be described thus: Induction of beta cells proliferation in 6 days post fertilize Tg(-1.2ins:H2BmCherry)Tg(ins:mAG-zGeminin(1/100)) zebra fish larvae assessed as increase in total beta cells at 25 to 50 uM after 24 hrs by confocal microscopic method. Particulars: Danio rerio, dose microM 25-50, time 24.0 hrs. Format: functional, cell-based.

In data set [19] the test system is Pancreatic beta cell. The data set can be described thus: Induction of beta cells proliferation in 6 days post fertilize Tg(-1.2ins:H2BmCherry)Tg(ins:mAG-zGeminin(1/100)) zebra fish larvae assessed as increase in beta cell proliferation at 25 to 50 uM after 24 hrs by confocal microscopic method. Type of data set: functional. Particulars: Danio rerio, dose microM 25-50, time 24.0 hrs.

On to `CC(C)=CCc1c(C)cc2oc3cccc(C4O[C@H](C)[C@@H](C)O4)c3c(=O)c2c1O`, for which the Activity in data set [1] was determined as 39.

With `C=CC(C)(C)c1c(C)c(CC=C(C)C)c(O)c2c(=O)c3c(CO)cccc3oc12`, the outcome in data set [2], in data set [3], in data set [4], in [11], in [12] and in [13] was Active. The outcome in data set [14] and in [15] was Active. Further, the Activity is 40 in data set [1]; 3.6 in data set [5]; “Dose-dependent effect” in data set [6]; “Dose-dependent effect” in [7]; 10% in data set [8]; “Toxic” in data set [10]. For the same molecule, the outcome in data set [9] was inactive.

Turning to `C=CC(C)(C)c1cc(CC=C(C)C)c(O)c2c(=O)c3c(CO)cc(C)cc3oc12`, the result in data set [2], in data set [3], in data set [4], in [11], in data set [12] and in [13] was Active. Also, the outcome in data set [14] and in [15] was Active. Moreover, the Activity was 40 in data set [1]; 4.3 in data set [5]; “Dose-dependent effect” in [16]; “Dose-dependent effect” in data set [17]; “Toxic” in data set [10]. For the same molecule, the outcome in data set [18] and in data set [19] was inactive.

Take `C[C@]12C=CC(=O)C=C1CC[C@@H]1[C@@H]2[C@@H](O)C[C@@]2(C)[C@H]1CC[C@]2(O)C(=O)CO` [PREDNISOLONE]: the Activity in [1] worked out at 40.
